Consider 11 compounds from patent US20260337162A1, “TRYPTAMINE COMPOUNDS, COMPOSITIONS, AND METHODS OF USE” (priority 2022, published 2026).

The conditions of series [1]: cited from earlier work.
Series [2] concerns the target T1, 5-HT2A receptor (Homo sapiens, UniProt P28223).
T1 construct: expressed in transfected cells
As to the kind of experiment: 5-HT2A receptor functional screening assay (efficacy relative to maximal 5-HT response). Type of series: cell-based. The settings on record: for activation at 0.5 µM: 500 nM. The protocol: (§1) 5-HT2 receptor-mediated Gq stimulation [phosphoinositide hydrolysis leading to the production of inositol phosphate 1 (IP1)]-canonical signaling pathways-were measured as previously described (Canal, C. E., Cordova-Sintjago, T., Liu, Y., Kim, M. S., Morgan, D., and Booth, R. G., 2013, Molecular pharmacology and ligand docking studies reveal a single amino acid difference between mouse and human serotonin 5-HT2A receptors that impacts behavioral translation of novel 4-phenyl-2-dimethylaminotetralin ligands, J Pharmacol Exp Ther 347, 705-716; Canal, C. E., Morgan, D., Felsing, D., Kondabolu, K., Rowland, N. E., Robertson, K. L., Sakhuja, R., and Booth, R. G., 2014, A Novel Aminotetralin-Type Serotonin (5-HT)(2C) Receptor —Specific Agonist and 5-HT2A Competitive Antagonist/5-HT2B Inverse Agonist with Preclinical Efficacy for Psychoses, J Pharm Exp Ther 349, 533), for example, with a homogeneous time-resolved fluorescence (HTRF) capable microplate reader (e.g., Mithras LB 940, Berthold) using commercially-available kits employing Fluorescence Resonance Energy Transfer (FRET) technology (e.g., IP-One HTRF (Cisbio) kits). Briefly, CHO-K1 or HEK293 cells expressing a single serotonergic 5-HT2 receptor subtype were incubated with test compounds and 5-HT or DOI (positive control) in stimulation buffer containing LiCl. After equilibration, the reaction was terminated with the donor and acceptor fluorescent conjugates in lysis buffer, and FRET was measured with a microplate reader (Berthold Mithras). Data were fit to non-linear curves to calculate potencies (e.g., EC50) and efficacies (e.g., EMAX), relative to positive controls (e.g., serotonin).

Series [3] addresses T1, 5-HT2A receptor. Nature of the series: Dose-response 5-HT2A functional assay (IP1 formation). Type of series: cell-based. The protocol:
FIG. 27 is a graph showing the dose-response 5-HT2A functional assay results as a percent of control agonist response for compound II-2; tested in duplicate at the indicated concentrations and the EC50 values were determined by non-linear regression analysis of the concentration-response curves generated with mean replicate values using Hill equation curve fitting;
FIG. 28 is a graph showing the dose-response 5-HT2A functional assay results as a percent of control agonist response for compounds III-2 and IV-21; tested in duplicate at the indicated concentrations and the EC50 values were determined by non-linear regression analysis of the concentration-response curves generated with mean replicate values using Hill equation curve fitting; and
as §1
The results from tests of 5-HT2A functional activities of this series of compounds were also unexpected in the context of the unusual results observed from competition binding assays. […] Complete dose-response 5-HT2A and 5HT2B functional assays (measuring IP1 formation) were conducted for III-2 and IV-21 by a second, independent laboratory.

For series [4], the target named is T2, human serotonin 5-HT2A receptor (Homo sapiens, UniProt P28223).
T2 construct: host or cells: HEK293 (ATCC CRL-1573)
T2 sequence (P28223 whole entry): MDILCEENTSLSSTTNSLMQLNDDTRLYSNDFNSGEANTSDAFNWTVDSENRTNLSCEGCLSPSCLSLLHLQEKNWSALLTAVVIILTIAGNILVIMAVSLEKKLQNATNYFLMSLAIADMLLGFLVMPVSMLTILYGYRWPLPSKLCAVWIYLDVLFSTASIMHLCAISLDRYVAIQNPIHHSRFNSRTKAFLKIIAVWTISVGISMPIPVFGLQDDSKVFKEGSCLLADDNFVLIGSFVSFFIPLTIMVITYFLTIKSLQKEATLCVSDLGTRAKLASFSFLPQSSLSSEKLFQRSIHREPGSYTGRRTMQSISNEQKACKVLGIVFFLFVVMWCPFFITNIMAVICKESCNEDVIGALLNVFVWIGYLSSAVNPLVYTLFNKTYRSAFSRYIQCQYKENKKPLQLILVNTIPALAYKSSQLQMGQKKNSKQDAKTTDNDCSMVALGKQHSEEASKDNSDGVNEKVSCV
As to the kind of experiment: Radioligand ([3H]LSD) competition binding, 5-HT2A receptor. As to conditions: for 5-HT2A receptor affinity (in words) / competition binding curve shape / Ki: [3H]LSD; for competition binding curve shape / competition for [3H]LSD-labeled 5-HT2A receptors: in words; for Ki: one-site fit Ki model; for competition for [3H]LSD-labeled 5-HT2A receptors: up to 10 μM for partial competition. The protocol: Binding affinity (Ki) and functional potency and efficacy (EC50 and EMAX) values of the compounds were measured.
Radioligand competition binding was performed as previously described (Saraf, T. S., Felsing, D. E., Armstrong, J. L., Booth, R. G., and Canal, C. E., 2021, Evaluation of lorcaserin as an anticonvulsant in juvenile Fmr1 knockout mice, Epilepsy Res 175, 106677), with minor modifications, using human cloned 5-HT2A receptors. Plasmids encoding human serotonin 5-HT2A receptor cDNA were procured from the cDNA Resource Center. Human embryonic kidney cells (HEK293, ATCC CRL-1573) were grown in a cell incubator in 100 mm dishes with antibiotic-free Dulbecco's modified Eagle's medium containing 10% fetal bovine serum. Cells were transfected at ~85% confluency with 5-15 μg cDNA using TransIT-2020 reagent (Mirus Bio, Madison, Wisconsin). After approximately 48 hours, cell membrane was collected via centrifugation. For all experiments, serotonin (5-HT) hydrochloride was used as a positive control, and mianserin hydrochloride (10 μM) was used to define non-specific binding. Each cell membrane homogenate expressing 5-HT2A receptors was incubated at room temperature in 96-well plates with [^3H] […] Following equilibration, each sample was filtered rapidly under vacuum through fiberglass filters presoaked in a buffer and washed by vacuum several times with an ice-cold buffer. Filters were soaked with scintillation fluid and counts per minute were detected using photodetectors (Microbeta Scintillation Counter). […] Data shown are the results from all experiments combined. As is known, G protein-coupled receptors, including the 5-HT2A receptor, can exist in multiple conformations, and ligands, typically agonist ligands, have unique affinities for these conformations of the receptor (Kenakin, T. Theoretical Aspects of GPCR-Ligand Complex Pharmacology, Chem. Rev. 2017, 117, 1, 4-20). […] However, for simplicity reasons, affinity of these compounds are reported herein as fitted to the single-site model. The data point for −10 samples is total specific binding (no compound present), and −4 was interpolated to complete the binding curves to 0 specific binding.

Another series is described as follows: in vivo. The series is classed as in vivo, adult, male C57BL/6J mice. The settings on record: 10 mg/kg PO; for concentration at 10 min / concentration at 0.5 h / concentration at 2 h: mouse, in vivo, po, 10 mg/kg; for concentration at 0.5 h: 30 min; for concentration at 2 h: 120 min. The protocol:
PK profiles were established in adult, male C57BL/6J (Jackson Laboratories). Mice were housed in standard laboratory cages with ad libitum access to food and water, and were acclimated to the vivarium for at least one week prior to testing in a procedure room. In a typical experiment, mice were administered 10 mg/kg of test compound by oral gavage and plasma and brain samples were collected at 10, 30, and 120 min with n-3 for each time point. Quantification of the parent molecule was done using LC-MS/MS method (LLOQ, 0.9 nM).

The test system of series [5] is 5-HT2A receptor. As to the kind of experiment: Head-twitch response (HTR) and behavioral observation in mice. As to conditions: 10 mg/kg PO; for HTR (per min): 30 min counting; for elicitation of HTR (in words) / qualitative behavioral changes: mice. The series is classed as in vivo, adult, male C57BL/6J mice. The protocol:
The HTR assay was performed in adult, male C57BL/6J mice, procured from the Jackson Laboratory (Bar Harbor, Maine), as previously described (Canal, C. E., and Morgan, D., 2012, Head-twitch response in rodents induced by the hallucinogen 2,5-dimethoxy-4-iodoamphetamine: a comprehensive history, a re-evaluation of mechanisms, and its utility as a model, Drug Test Anal 4, 556-576; Saraf, T. S., Felsing, D. E., Armstrong, J. L., Booth, R. G., and Canal, C. E., 2021, Evaluation of lorcaserin as an anticonvulsant in juvenile Fmr1 knockout mice, Epilepsy Res 175, 106677). Mice were housed in standard laboratory cages with ad libitum access to food and water, and were acclimated to the vivarium for at least one week prior to testing in a procedure room. On the day of testing, mice were acclimated to the procedure room in their home cages for ≥60 min before administration of test compounds. Test articles were administered at 10 mg/kg by oral gavage and mice were placed immediately thereafter in a clear, polycarbonate box (46×20×20 cm), and HTRs were counted for 30 consecutive minutes, using hand-held tally counters, by two trained observers who were blind to treatment.

The mark [6] stands for this setting: brain, read-out: PK data, Brain, 10 min.
[7] abbreviates: brain, read-out: PK data, Brain, 30 min.
Setting [8] is: brain, read-out: PK data, Brain, 120 min.
The mark [9] stands for this setting: plasma, read-out: PK data, Plasma, 10 min.
Setting [10] is: plasma, read-out: PK data, Plasma, 30 min.
The mark [11] stands for this setting: plasma, read-out: PK data, Plasma, 120 min.

A word on the EC50: it is the concentration giving half of the maximal effect. Read a high EC50 as lower potency in that assay. The term Emax denotes the size of the effect at its maximum, as opposed to the concentration needed. What is called Ki is a dissociation constant, usually derived from enzyme kinetics or from competition with a known ligand. A higher Ki goes with lower affinity.

Entries after “also recorded” stand apart in the source; their conditions may differ. Where two headings read alike, the source gives them in different places. A value given as a limit tells only on which side of the number the result lay.

T1 sequence (P28223 whole entry): as above

On to `COc1ccc2[nH]cc(CCN(C)C)c2c1` [Compound 5-MeO-DMT, 5-methoxy-N,N-dimethyltryptamine], for which the duration of action in series [1] (in vivo) was 5 to 15 min. Moreover, in series [1] (oral), the “oral activity / oral bioavailability” value was “lacks oral bioavailability”.
Take `CN(C)CCc1c[nH]c2ccc(SC(F)(F)F)cc12` [Compound I-3, N,N-dimethyl-2-(5-((trifluoromethyl)thio)-1H-indol-3-yl) ethan-1-amine]: at 5-HT2A receptor [2], the activation at 0.5 µM is -34.2% and the activation at 50 µM was 43.9%.
For `FC(F)CCN(CCc1c[nH]c2ccccc12)CCC(F)F` [II-2, N-(2-(1H-indol-3-yl)ethyl)-N-(3,3-difluoropropyl)-3,3-difluoropropan-1-amine], the activation at 0.5 µM at 5-HT2A receptor [2] amounted to 1.4%. Further, at 5-HT2A receptor [3] (IP1 formation), the EC50 worked out at 596 nM. This compound also returned a maximal effect (Emax) at 5-HT2A receptor [3] (percent of control agonist response) of 79%.
For `FC(F)(F)CCN(CCc1c[nH]c2ccccc12)CCC(F)(F)F` [II-3, N-(2-(1H-indol-3-yl)ethyl)-3,3,3-trifluoro-N-(3,3,3-trifluoropropyl) propan-1-amine], at 5-HT2A receptor [2], the activation at 0.5 µM was -29.7% and the activation at 50 µM is > 50%.
Regarding `CN(CCc1c[nH]c2ccccc12)CCC(F)(F)F` [II-6, N-(2-(1H-indol-3-yl)ethyl)-3,3,3-trifluoro-N-methylpropan-1-amine], at 5-HT2A receptor [2], the activation at 0.5 µM is -7.7 ± 11.6% and the activation at 50 µM was -3.1 ± 9.6%. Besides, in series [4], the “5-HT2A receptor affinity (in words)” value was “high affinities”, the “competition binding curve shape” value is recorded as “multiple slopes”, the Ki is 12 nM and the “competition for [3H]LSD-labeled 5-HT2A receptors” value is listed as “complete competition”. Also, the “brain penetration (in words)” value in “in vivo” (mice) was “brain-penetrant”. Moreover, in “in vivo” (setting [6]), the concentration at 10 min was 1550 to 12600 nM. In addition, the concentration at 0.5 h in the series “in vivo” (setting [7]) lay within 720 to 4710 nM. Also, the concentration at 2 h in the series “in vivo” (setting [8]) lay in the range of 21 to 1130 nM. Also, the concentration at 10 min in “in vivo” (setting [9]) is 820 to 7760 nM. In addition, in the series “in vivo” (setting [10]), the concentration at 0.5 h lay within 390 to 3140 nM. Further, the concentration at 2 h in the series “in vivo” (setting [11]) was in the range of 7 to 440 nM. In the series with 5-HT2A receptor [5], the “HTR (per min)” value is <1 per min; the “elicitation of HTR (in words)” value is “did not elicit a HTR”; the qualitative behavioral changes entry is “reduced locomotion and “hiccup” responses”.
For `FC(F)(F)CN(CCc1c[nH]c2ccccc12)CC(F)(F)F` [II-10, N-(2-(1H-indol-3-yl)ethyl)-2,2,2-trifluoro-N-(2,2,2-trifluoroethyl) ethan-1-amine], the “competition for [3H]LSD-labeled 5-HT2A receptors” value in series [4] is listed as “only partial competition”.
Consider `CN(CCc1c[nH]c2ccccc12)CC(F)F` [II-12, N-(2-(1H-indol-3-yl)ethyl)-2,2-difluoro-N-methylethan-1-amine], for which, at 5-HT2A receptor [2], the activation at 0.5 µM was 19.9% and the activation at 50 µM was found to be 30.3%.
Turning to `FC1(F)CCN(CCc2c[nH]c3ccccc23)CC1` [II-21, 3-(2-(4,4-difluoropiperidin-1-yl)ethyl)-1H-indole], on 5-HT2A receptor [2], the activation at 0.5 µM was found to be 9.2% and the activation at 50 µM was -25.4%.
The like results for `Oc1cccc2[nH]cc(CCN(CCC(F)(F)F)CCC(F)(F)F)c12` [III-3, 3-(2-(bis(3,3,3-trifluoropropyl)amino)ethyl)-1H-indol-4-ol] were, in that order, 29.2% and > 50%.
`CN(CCc1c[nH]c2cccc(O)c12)CCC(F)(F)F` [III-6, 3-(2-(methyl (3,3,3-trifluoropropyl)amino)ethyl)-1H-indol-4-ol]: on 5-HT2A receptor [2], the activation at 0.5 µM was 53.5% and the activation at 50 µM was > 50%. The “5-HT2A functional activity (in words)” value on 5-HT2A receptor [2] (in vitro screening, II-15: both 500 nM and 50 μM) is listed as “agonist activity; also recorded: behaved as an agonist”. Further, in series [4], the “5-HT2A receptor affinity (in words)” value is “high affinities; also recorded: potent affinity”, the “competition binding curve shape” value was “multiple slopes”, the Ki was determined as 12 nM and the “competition for [3H]LSD-labeled 5-HT2A receptors” value was “complete competition”. Besides, the concentration at 10 min in the series “in vivo” (setting [6]) was 200 to 1300 nM. The concentration at 0.5 h in “in vivo” (setting [7]) lay in the range of 120 to 420 nM. Besides, the concentration at 2 h in “in vivo” (setting [8]) was in the range of 3 to 20 nM. Further, the concentration at 10 min in the series “in vivo” (setting [9]) lay in the range of 170 to 620 nM. Moreover, the concentration at 0.5 h in the series “in vivo” (setting [10]) is 72 to 180 nM. Besides, the concentration at 2 h in the series “in vivo” (setting [11]) lay within 2 to 16 nM. In the series on 5-HT2A receptor [5], the “HTR (per min)” value is <1 per min; the “elicitation of HTR (in words)” value is “did not elicit a HTR; also recorded: did not elicit the 5-HT2A-dependent HTR”; the qualitative behavioral changes entry is “reduced locomotion and “hiccup” responses; also recorded: “hiccup” like responses and caused hypolocomotion”.
For the compound `CN(CCc1c[nH]c2cccc(O)c12)CC(F)F` [III-12, 3-(2-((2,2-difluoroethyl)(methyl)amino)ethyl)-1H-indol-4-ol], on 5-HT2A receptor [2], the activation at 0.5 µM worked out at 17.8% and the activation at 50 µM was > 50%.
